Test results: patent US12570684B2 (UNIVERSITY OF TENNESSEE RESEARCH FOUNDATION, priority 2020, dated 2026)
“And” between values parts separate entries of the source, which are not always exact repeats. Identical values can stand only once. Like-named read-outs stand apart in the source and are kept apart here.

Key:
PANC-1 = test: MTT cytotoxicity assay; format: cell-based, human
Method: (§1) Cell lines. The human primary PDAC cell lines PANC-1 (ATCC CRL 1469); Capan-2 (ATCC HTB-80) and metastatic PDAC cell lines Capan-1 (ATCC HTB-79), AsPC-1 (ATCC CRL-1682), L1210 (ATCC CCL-219), KB (ATCC CCL-17), HeLa, SiHa (ATCC HTB-35), HCT-116 (ATCC CCL-247), DLD-1 (ATCC CCL221), hTERT-HPNE (ATCC CRL-4023), Vero (ATCC CCL-81) were purchased from the ATCC. The cell lines were cultured and maintained in the media as recommended by the supplier. The cell lines were regularly tested for mycoplasma contamination and authenticated. In addition to ATCC cell lines, Dr. Glazer's lab generated patient-derived PDAC cell line, PD002. PD002 Cells were maintained and cultured in DMEM medium supplemented with 20% FBS and 100 IU/mL penicillin and incubated at 37° C. with 5% CO2.
(§2) MTT cytotoxicity assay. To study the effect of treatment with DPAGT1 inhibitors on the growth and proliferation of cells, a fixed number of cells (5×10^4 cells/well, 196 μL) were plated in a 96 well plate. Into each well 5 μL of drug concentration was added. After 72 h of incubation with drugs at 37° C., 5% CO2, 10 μL of MTT solution (5 mg/mL in PBS) was added and incubated another 3 h at 37° C., 5% CO2. The medium was removed, and DMSO (200 μL/well) was added. Viability was assessed on the basis of cellular conversion of MTT into a purple formazan product. The absorbance of the colored formazan product was measured at 570 nm by BioTek Synergy HT Spectrophotometer.

Capan-2 = test: MTT cytotoxicity assay; format: cell-based, human
Method: as §1, §2

AsPC-1 = test: MTT cytotoxicity assay; format: cell-based, human
Method: as §1, §2

MraY/MurX = MraY/MurX (Mycobacterium tuberculosis, UniProt P9WMW7); conditions: background; cited from earlier work
Sequence of MraY/MurX (P9WMW7 whole entry): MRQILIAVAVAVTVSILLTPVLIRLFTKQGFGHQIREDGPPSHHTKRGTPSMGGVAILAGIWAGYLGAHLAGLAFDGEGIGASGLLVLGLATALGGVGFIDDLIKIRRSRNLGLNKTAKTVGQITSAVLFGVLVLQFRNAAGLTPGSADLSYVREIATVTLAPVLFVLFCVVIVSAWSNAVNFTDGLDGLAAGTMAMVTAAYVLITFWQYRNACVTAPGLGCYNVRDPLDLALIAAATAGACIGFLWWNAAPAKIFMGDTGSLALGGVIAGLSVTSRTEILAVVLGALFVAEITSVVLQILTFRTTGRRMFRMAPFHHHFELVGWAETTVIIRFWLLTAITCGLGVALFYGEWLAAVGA

HPNE = test: MTT cytotoxicity assay; format: cell-based; conditions: for IC50: MTT, 72 h
Method: as §1, §2

HCT-116 = test: MTT cytotoxicity assay; format: cell-based
Method: as §1, §2

KB = test: MTT cytotoxicity assay; format: cell-based; conditions: 72 h
Method: as §1, §2

L1210 = test: MTT cytotoxicity assay; format: cell-based; conditions: for IC50: MTT, 72 h
Method: as §1, §2

Vero = test: MTT cytotoxicity assay; format: cell-based; conditions: for IC50: MTT, 72 h
Method: as §1, §2

PD002 [1] = test: MTT cytotoxicity assay; format: cell-based; conditions: MTT, 72 h
Method: as §1, §2

SiHa = test: MTT cytotoxicity assay; format: cell-based; conditions: 72 h
Method: as §1, §2

DLD-1 = test: MTT cytotoxicity assay; format: cell-based
Method: as §1, §2

WecA = conditions: background; cited from earlier work
[2] = target: MraY (Hydrogenivirga sp.) (Hydrogenivirga sp. 128-5-R1-1, UniProt Z9Y2G8N0L0); test: MraY assay; format: biochemical
Sequence of MraY (Hydrogenivirga sp.) (Z9Y2G8N0L0 7-365 limits assumed): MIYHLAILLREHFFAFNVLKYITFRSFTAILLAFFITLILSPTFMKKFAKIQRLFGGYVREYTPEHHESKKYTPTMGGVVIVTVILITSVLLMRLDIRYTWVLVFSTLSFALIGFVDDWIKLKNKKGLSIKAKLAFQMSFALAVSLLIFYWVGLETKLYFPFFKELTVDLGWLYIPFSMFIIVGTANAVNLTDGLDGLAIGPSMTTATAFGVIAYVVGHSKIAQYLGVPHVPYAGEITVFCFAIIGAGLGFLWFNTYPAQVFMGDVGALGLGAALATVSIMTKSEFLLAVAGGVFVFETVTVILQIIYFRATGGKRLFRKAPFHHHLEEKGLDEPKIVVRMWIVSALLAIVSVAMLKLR
Method: Expression and purification of HyMraY. The gene mraY of Hydrogenivirga spp. 128-5-R1-1 was cloned with a N-terminal His6 tag into a pET22b vector. […] The proteins were purified using a nickel, cation exchange, and size exclusion chromatography.
MraY assay. MraY assay substrates, Park's nucleotide-N^ε-C6-dansylthiourea, neryl phosphate, were chemically synthesized according to the reported procedures.^7 Park's nucleotide-N^ε-C6-dansylthiourea (2 mM stock solution, 1.88 jiL), MgCl2 (0.5 M, 5 jiL), KCl (2 M, 5 jiL), Triton X-100 (0.5%, 5.63 jiL), Tris buffer (pH 8.0, 50 mM), neryl phosphate (0.1 M, 2.25 jiL), and inhibitor molecule (0-50 .ig/mL in Tris buffer) were placed in a 1.5 mL Eppendorf tube. […] (26° C.) and quenched with CHCl3 (100 jiL). […] The aqueous phase was assayed via reverse-phase HPLC.

WecA (E. coli) = WecA (E. coli) (Escherichia coli, UniProt P0AC78); test: WecA assay
Sequence of WecA (E. coli) (P0AC78 whole entry): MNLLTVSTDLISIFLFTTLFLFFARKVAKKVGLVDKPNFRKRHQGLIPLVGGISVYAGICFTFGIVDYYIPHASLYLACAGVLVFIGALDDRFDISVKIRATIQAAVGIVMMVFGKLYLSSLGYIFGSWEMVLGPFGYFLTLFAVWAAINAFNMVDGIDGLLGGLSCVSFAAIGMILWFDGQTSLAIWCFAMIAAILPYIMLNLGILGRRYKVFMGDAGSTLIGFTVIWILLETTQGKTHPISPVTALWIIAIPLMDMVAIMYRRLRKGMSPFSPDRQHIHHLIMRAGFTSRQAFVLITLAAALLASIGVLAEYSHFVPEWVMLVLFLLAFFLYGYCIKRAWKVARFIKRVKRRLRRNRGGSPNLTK
Method: Preparation of membrane fraction P-60 containing WecA. E. coli B21 wecA strain were harvested by centrifugation (4,700 rpm) at 4° C. followed by washing with 0.9% saline solution (thrice). The washed cell pellets were washed with homogenization buffer (containing 50 mM K2HPO4, 5 mM MgCl2, 5 mM 1,4-dithio-DL-threitol, and 10% glycerol, pH=7.2) (thrice), and approximately 5 g of pellet (wet weight) was collected. The washed cell pellets were suspended in homogenization buffer and disrupted by probe sonication on ice (5 s on and 2 s off for 1 min, then cool down for 1.5 min., 5 cycles, cool down for 15 min, and then, 5 s on and 2 s off for 1 min., cool down for 1.5 min, 5 cycles). The resulting suspension was centrifuged at 4,700×g for 15 min. at 4° C. to remove unbroken cells. The lysate was centrifuged at 25,000×g for 20 min. at 4° C. The supernatant was subjected to ultracentrifugation at 60,000×g for 1 h at 4° C. The supernatant was discarded, and the membrane fraction containing WecA enzyme (P-60) was suspended in the Tris-HCl buffer (pH=7.5). Total protein concentrations were approximately 8 to 10 mg/mL. Aliquots were stored in Eppendorf tubes at −80° C.

DPAGT1 (Human) = target: T1, DPAGT1 (Human) (Homo sapiens, UniProt Q9H3H5); test: DPAGT1 assay; format: biochemical
T1 construct: made in house; host or cells: Expi293 cells (suspension)
T1 sequence (Q9H3H5 1-408): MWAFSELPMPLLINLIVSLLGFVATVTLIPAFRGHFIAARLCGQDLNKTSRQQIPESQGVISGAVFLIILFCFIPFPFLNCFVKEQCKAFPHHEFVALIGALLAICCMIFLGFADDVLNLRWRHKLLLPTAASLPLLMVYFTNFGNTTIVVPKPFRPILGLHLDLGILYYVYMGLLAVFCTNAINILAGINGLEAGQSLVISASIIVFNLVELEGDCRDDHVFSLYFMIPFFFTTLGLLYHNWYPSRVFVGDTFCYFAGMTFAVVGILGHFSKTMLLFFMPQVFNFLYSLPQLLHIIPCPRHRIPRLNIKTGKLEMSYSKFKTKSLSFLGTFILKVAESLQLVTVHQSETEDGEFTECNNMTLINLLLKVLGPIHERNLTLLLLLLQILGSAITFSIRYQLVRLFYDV
Method: DPAGT1 expression and purification. DPAGT1 was expressed in suspended Expi293 cells for 36 h. The cells were lysed by drawing through a 26 g needle (10 times) and membrane protein was extracted using buffer containing 1% decyl f3-D-maltopyranoside detergent. DPAGT1 was purified using HA-agarose resin and a superdex 200 size exclusion column.

cell lines in Table 2 = test: MTT assays, summary over the cell lines in Table 2; format: cell-based
Method: as §1, §2

mice = conditions: IP; cited from earlier work
PD002 [3] = test: Scratch (wound healing) assay; format: cell-based; conditions: 0.2 μM, 24 h; untreated PD002 63%
Method: Scratch Assay. A confluent monolayer was formed in 24-well plates. The monolayer was scratched by a sterile 200 μL pipette tip and washed with PBS to remove cell debris. Complete medium with CPPB (5) (0, 0.05, 0.1, 0.2 μM) were added and scratched areas were photographed with microscope. The scratched cells were incubated at 37° C., 5% CO2. After 24 h, medium was removed and cells were stained with a 1:1 mixture of crystal violet and PBS for 5 min., washed with PBS twice, and photographed with microscope. Wound areas were measured and recovered areas were calculated.

DPAGT1 [4] = conditions: background; cited from earlier work
AglH (M. jannaschii) = target: T2, AglH (M. jannaschii) (Methanocaldococcus jannaschii, UniProt Q58513); test: AglH assay
T2 sequence (Q58513 1-301): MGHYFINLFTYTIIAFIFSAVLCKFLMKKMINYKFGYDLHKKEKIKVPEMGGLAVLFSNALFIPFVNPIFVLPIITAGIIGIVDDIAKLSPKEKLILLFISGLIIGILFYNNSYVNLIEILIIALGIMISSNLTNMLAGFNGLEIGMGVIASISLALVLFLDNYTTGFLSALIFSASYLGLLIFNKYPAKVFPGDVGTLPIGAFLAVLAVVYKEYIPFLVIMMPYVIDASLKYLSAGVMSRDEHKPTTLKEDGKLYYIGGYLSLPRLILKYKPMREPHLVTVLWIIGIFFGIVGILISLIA

DPAGT1 [5] = test: Immunofluorescent staining of DPAGT1 expression; format: cell-based
DPAGT1 gene = test: RT-qPCR analyses of DPAGT1 expression level; format: cell-based; conditions: PD002
[6] = system: Myocobacterium tuberculosis H37Rv, Mycobacterium avium 2285, Mycobacterium smegmatis (ATCC607); test: Antimycobacterial activity (MIC); format: cell-based, Mycobacterium spp.; conditions: at 50 μg/mL
MraY = conditions: background; cited from earlier work

Row | Molecule | IC50 (PANC-1; 72 h) [µM] | IC50 (Capan-2; 72 h) [µM] | IC50 (AsPC-1; 72 h) [µM] | IC50 (HPNE) [µM] | IC50 (HCT-116; 72 h) [µM] | IC50 (KB) [µM] | IC50 (L1210) [µM] | IC50 (Vero) [µM] | IC50 (PD002 [1]) [µM] | IC50 (SiHa) [µM] | IC50 (DLD-1; 72 h) [µM] | IC50 (WecA) [µM] | IC50 [2] [µM] | IC50 (WecA (E. coli); read-out: IC50 WecA (E. coli)) [µM] | IC50 (DPAGT1 (Human)) [µM] | IC50 (PANC-1; Homo sapiens, PANC-1, 72 h) [µM] | IC50 (Capan-2; Homo sapiens, Capan-2, 72 h) [µM] | IC50 (AsPC-1; Homo sapiens, ASPC1, 72 h) [µM] | IC50 (HPNE; HPNE) [µM] | IC50 (HCT-116; Homo sapiens, HCT-116, 72 h) [µM] | other results
1 | CO[C@H]1[C@@H](OC)[C@H](n2ccc(=O)[nH]c2=O)O[C@@H]1[C@@H](O[C@H]1OC(C(=O)N[C@H]2CCCCNC2=O)=C[C@H](O)[C@@H]1O)C(N)=O [O-Methyl capuramycin] | > 50 | > 50 | > 50 | > 50 | > 50 | > 50 | > 50 | > 50 | > 50 | > 50 | > 50 | ~0.06 | > 50 | 0.06 | 4.5 |  |  |  |  |  | MraY/MurX inhibitory activity (in words) (MraY/MurX): does not exhibit MraY/MurX inhibitory activity; IC50 (DPAGT1 (Human); listed as OM-CAP): 3.5 µM
2 | Tunicamycin | 1.5 | 1.5 | 0.45 | 7.5 | 0.92 | 2.5 | 1.7 | 0.78 | 1.5 | 0.92 | 1.25 | 0.15 | 2.9 | 0.15 | 1.5 |  |  |  |  |  | IC50 (MraY/MurX): 3.38 µM; IC50 (cell lines in Table 2; all cell lines in Table 2, read-out: IC50 range, growth inhibition of all cell lines in Table 2): 0.78 to 7.5 µM and 0.45 to 7.5 µM; LD100 (mice): 3.5 mg/kg; LDs50 (mice): 2.0 mg/kg; wound-healing rate (PD002 [3]): 35%; IC50 (DPAGT1 [4]): 2.5 µM; IC50 (AglH (M. jannaschii); read-out: IC50 AglH (M. jannaschii)): 13.2 µM; DPAGT1 protein expression (DPAGT1 [5]): decreased; DPAGT1 gene expression (DPAGT1 gene): decreased
3 | CO[C@@H]1[C@H](O)[C@@H]([C@@H](O[C@H]2OC(C(=O)NCc3ccc(N4CCC(Oc5ccc(OC(F)(F)F)cc5)CC4)cc3)=C[C@H](O)[C@@H]2O)C(N)=O)O[C@H]1n1ccc(=O)[nH]c1=O |  |  |  |  |  |  |  |  |  |  |  |  |  |  |  | 45 | 40 | 30 | > 50 | 25 | IC50 (cell lines in Table 2; KB, SiHa, HCT-116, DLP-1, Capan-2, PANC-1, AsPC-1, PD002, MTT assays, read-out: IC50 range, growth inhibition of solid cancer cell lines): 15 to 40 µM; antiproliferative activity against HPNE (HPNE; at 50 μM, normal pancreatic ductal cell): did not show antiproliferative activity; IC50 (KB; Homo sapiens, KB): 35 µM; antiproliferative activity against L1210 (L1210; at 50 μM): did not show antiproliferative activity; IC50 (Vero; Chlorocebus sabaeus, Vero): > 50 µM; antiproliferative activity against Vero (Vero; at 50 μM, normal kidney cell): did not show antiproliferative activity; IC50 (PD002 [1]; PD002): 50 µM; IC50 (SiHa; Homo sapiens, SiHa): 25 µM; IC50 (DLD-1; Homo sapiens, DLD-1, 72 h): 35 µM; MraY inhibitory activity (in words) [2]: did not display MraY inhibitory activity; AglH inhibitory activity (in words) (AglH (M. jannaschii)): very weak; WecA inhibitory activity (in words) (WecA (E. coli)): very weak; DPAGT1 inhibitory activity (in words) (DPAGT1 (Human)): high nM range DPAGT1 inhibitors; growth inhibitory activity against Mycobacterium spp. [6]: did not show growth inhibitory activity
4 | CO[C@H]1[C@@H](O)[C@H](n2ccc(=O)[nH]c2=O)O[C@@H]1[C@@H](O[C@H]1OC(C(=O)N[C@H]2CCCCNC2=O)=C[C@H](O)[C@@H]1O)C(N)=O [Capuramycin] |  |  |  |  |  |  |  |  |  |  |  |  | 0.13 |  |  | > 50 | > 50 | > 50 | > 50 | > 50 | IC50 (KB; Homo sapiens, KB): > 50 µM; IC50 (L1210; Mus musculus, L1210): > 50 µM; IC50 (Vero; Chlorocebus sabaeus, Vero): > 50 µM; IC50 (PD002 [1]; PD002): > 50 µM; IC50 (SiHa; Homo sapiens, SiHa): > 50 µM; IC50 (DLD-1; Homo sapiens, DLD-1, 72 h): > 50 µM; MraY inhibitory activity (in words) [2]: selective MraY inhibitor; AglH inhibitory activity (in words) (AglH (M. jannaschii)): does not display inhibitory activity; IC50 (AglH (M. jannaschii)): > 50 µM; IC50 (WecA (E. coli)): > 50 µM; WecA inhibitory activity (in words) (WecA (E. coli)): does not display inhibitory activity; IC50 (MraY): 0.15 µM; DPAGT1 inhibitory activity (in words) (DPAGT1 (Human)): does not display inhibitory activity
